The target of assay [1] is T1, purified recombinant human PI3K enzyme γ (Homo sapiens, UniProt P48736).
T1 construct: purchased Invitrogen, USA
In words: Inhibition of PI3-Kinase enzymatic activity (HTRF enzyme assay), γ. It is filed as biochemical. Conditions: 1 μM compound; PI3K γ 100 ng/well; PIP2 10 μM; ATP 50 μM; read-out: Percentage inhibition of PI3K activity, γ. As for the experimental part: (§1) Inhibition of PI3-Kinase enzymatic activity was determined using a homogeneous time-resolved fluorescence (HTRF) kit from Eurofins. 1 μM of Compounds of present invention were premixed with DMSO. The experiment was initiated by mixing 1.0% DMSO as vehicle/compounds with purified recombinant human PI3K enzyme {δ (50 ng/well); γ (100 ng/well)} (Invitrogen, USA) and substrate (PIP2, 10 μM) in the wells and incubation for 15 min at room temperature. There after ATP was added (δ at 200 μM, and γ at 50 μM) in to the wells containing reaction mixture, followed by re-incubation for 30 minutes at room temperature. Reaction was terminated by addition of a stopping solution and was further incubated for 4 hours at room temperature before reading using Envision multimode reader (Perkin Elmer). Percentage inhibition of PI3K activity was calculated by determining ratio of specific europium 665 nm energy transfer signal to reference 615 nm signals.
For orientation: Time-resolved FRET reads energy transfer from a long-lived donor to a nearby acceptor.

For assay [2], the target named is T2, purified recombinant human PI3K enzyme δ (Homo sapiens, UniProt O00329).
T2 construct: purchased Invitrogen, USA
T2 sequence (O00329 whole entry): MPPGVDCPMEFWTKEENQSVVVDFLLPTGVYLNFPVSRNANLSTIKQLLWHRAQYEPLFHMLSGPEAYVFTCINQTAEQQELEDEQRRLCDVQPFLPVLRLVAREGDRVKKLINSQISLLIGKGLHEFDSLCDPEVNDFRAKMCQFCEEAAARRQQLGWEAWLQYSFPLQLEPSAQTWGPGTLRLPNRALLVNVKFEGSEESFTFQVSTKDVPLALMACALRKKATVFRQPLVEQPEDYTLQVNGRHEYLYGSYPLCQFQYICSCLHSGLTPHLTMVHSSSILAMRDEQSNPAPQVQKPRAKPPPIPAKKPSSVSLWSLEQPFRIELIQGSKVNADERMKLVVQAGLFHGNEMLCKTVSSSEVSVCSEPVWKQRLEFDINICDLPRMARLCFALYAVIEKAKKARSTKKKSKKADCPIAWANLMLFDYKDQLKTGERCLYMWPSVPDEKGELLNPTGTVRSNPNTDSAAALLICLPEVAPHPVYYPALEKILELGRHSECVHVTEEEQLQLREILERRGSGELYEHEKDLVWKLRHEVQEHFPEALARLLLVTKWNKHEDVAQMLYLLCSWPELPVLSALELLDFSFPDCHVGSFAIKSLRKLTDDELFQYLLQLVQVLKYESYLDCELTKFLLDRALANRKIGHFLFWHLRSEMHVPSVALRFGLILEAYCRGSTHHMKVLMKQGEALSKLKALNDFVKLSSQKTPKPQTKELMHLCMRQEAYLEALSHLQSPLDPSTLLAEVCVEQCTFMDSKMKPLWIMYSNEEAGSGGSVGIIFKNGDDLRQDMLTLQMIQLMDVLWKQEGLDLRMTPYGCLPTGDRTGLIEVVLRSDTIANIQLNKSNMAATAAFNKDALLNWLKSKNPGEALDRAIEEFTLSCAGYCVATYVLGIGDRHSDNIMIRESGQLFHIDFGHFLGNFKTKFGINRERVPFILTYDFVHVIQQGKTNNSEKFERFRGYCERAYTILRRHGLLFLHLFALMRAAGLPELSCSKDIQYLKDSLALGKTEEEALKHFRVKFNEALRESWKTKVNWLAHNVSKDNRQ
T2 sequence (P27986 whole entry partner): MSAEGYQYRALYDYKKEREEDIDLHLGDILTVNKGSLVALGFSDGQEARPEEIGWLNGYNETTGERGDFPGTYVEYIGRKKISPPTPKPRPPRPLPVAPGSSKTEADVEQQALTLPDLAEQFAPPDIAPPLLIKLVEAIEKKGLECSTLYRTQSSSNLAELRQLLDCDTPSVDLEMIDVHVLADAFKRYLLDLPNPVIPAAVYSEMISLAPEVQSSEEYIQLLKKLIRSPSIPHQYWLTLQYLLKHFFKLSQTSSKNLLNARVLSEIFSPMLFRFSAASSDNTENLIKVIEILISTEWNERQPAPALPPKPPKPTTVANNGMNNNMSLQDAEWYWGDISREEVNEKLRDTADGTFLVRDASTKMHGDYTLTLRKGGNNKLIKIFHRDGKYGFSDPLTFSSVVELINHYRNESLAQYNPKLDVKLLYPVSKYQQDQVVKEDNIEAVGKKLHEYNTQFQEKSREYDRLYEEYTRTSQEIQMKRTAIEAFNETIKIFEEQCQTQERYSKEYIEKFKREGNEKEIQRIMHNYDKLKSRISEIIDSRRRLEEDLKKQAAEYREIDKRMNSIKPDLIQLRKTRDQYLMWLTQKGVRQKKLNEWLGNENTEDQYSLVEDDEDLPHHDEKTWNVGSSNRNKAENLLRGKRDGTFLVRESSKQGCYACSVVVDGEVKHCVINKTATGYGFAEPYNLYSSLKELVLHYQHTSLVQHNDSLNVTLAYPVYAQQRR
Kind of assay: Inhibition of PI3-Kinase enzymatic activity (HTRF enzyme assay), δ. It is filed as biochemical. The following applies: 1 μM compound; PI3K δ 50 ng/well; PIP2 10 μM; ATP 200 μM; read-out: Percentage inhibition of PI3K activity, δ. Here is the method: as §1

T1 sequence (P48736 whole entry): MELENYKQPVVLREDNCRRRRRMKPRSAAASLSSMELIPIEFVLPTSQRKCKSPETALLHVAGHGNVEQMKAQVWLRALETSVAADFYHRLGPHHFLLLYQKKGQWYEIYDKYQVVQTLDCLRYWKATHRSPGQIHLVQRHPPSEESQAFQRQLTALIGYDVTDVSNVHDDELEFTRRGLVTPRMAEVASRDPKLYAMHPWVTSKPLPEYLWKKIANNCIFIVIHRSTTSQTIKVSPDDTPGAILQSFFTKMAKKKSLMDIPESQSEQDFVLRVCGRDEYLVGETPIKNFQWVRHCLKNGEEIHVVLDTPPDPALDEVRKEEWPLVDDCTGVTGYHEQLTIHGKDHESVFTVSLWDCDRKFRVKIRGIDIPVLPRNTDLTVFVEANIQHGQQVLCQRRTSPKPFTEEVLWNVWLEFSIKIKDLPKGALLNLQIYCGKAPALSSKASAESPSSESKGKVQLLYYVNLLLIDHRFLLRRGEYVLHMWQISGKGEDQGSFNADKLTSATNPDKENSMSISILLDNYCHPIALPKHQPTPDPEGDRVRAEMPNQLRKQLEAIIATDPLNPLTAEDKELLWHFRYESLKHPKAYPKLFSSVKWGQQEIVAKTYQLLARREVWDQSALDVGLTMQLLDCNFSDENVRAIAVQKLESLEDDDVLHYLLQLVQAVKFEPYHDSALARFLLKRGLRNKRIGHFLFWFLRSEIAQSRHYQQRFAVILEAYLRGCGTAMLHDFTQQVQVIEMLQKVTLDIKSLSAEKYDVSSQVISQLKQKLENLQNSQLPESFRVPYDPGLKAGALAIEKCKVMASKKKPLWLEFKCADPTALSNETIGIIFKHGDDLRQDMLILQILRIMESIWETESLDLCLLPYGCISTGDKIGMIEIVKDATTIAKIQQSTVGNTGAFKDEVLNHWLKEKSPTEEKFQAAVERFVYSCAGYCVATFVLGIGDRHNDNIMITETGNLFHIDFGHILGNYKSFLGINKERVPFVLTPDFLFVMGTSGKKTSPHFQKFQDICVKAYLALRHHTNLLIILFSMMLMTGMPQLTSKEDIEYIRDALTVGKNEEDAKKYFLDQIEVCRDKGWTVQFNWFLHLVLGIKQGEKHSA

As for `Cn1nccc1-c1cccc2nc(Cn3nc(-c4ccc(O)c5c4CC(C)(C)O5)c4c(N)ncnc43)n(-n3cccc3)c(=O)c12` [compound 22, 2-{[4-amino-3-(7-hydroxy-2,2-dimethyl-2,3-dihydro-1-benzofuran-4-yl)-1H-pyrazolo[3,4-d]pyrimidin-1-yl]methyl}-5-(1-methyl-1H-pyrazol-5-yl)-3-(1H-pyrrol-1-yl)quinazolin-4(3H)-one], the inhibition (commonly the percentage by which the read-out fell short of the control) at 1 µM in assay [1] was in the range of 60 to 80%; in assay [2] it was 80 to 100%.

On to `Cc1ccc(C2(n3c(Cn4nc(-c5ccc(O)c6c5CC(C)(C)O6)c5c(N)ncnc54)nc4cccc(C#CCO)c4c3=O)CC2)cc1` [compound 37, 2-{[4-amino-3-(7-hydroxy-2,2-dimethyl-2,3-dihydro-1-benzofuran-4-yl)-1H-pyrazolo[3,4-d]pyrimidin-1-yl]methyl}-5-(3-hydroxyprop-1-yn-1-yl)-3-[1-(4-methylphenyl)cyclopropyl]quinazolin-4(3H)-one], for which the inhibition at 1 µM in assay [1] and in assay [2] was 80 to 100% throughout.

As to `Cc1ccc(C)n1-n1c(Cn2nc(-c3ccc(O)c4c3CC(C)(C)O4)c3c(N)ncnc32)nc2cccc(-c3ccnn3C)c2c1=O` [compound 41, 2-{[4-amino-3-(7-hydroxy-2,2-dimethyl-2,3-dihydro-1-benzofuran-4-yl)-1H-pyrazolo[3,4-d]pyrimidin-1-yl]methyl}-3-(2,5-dimethyl-1H-pyrrol-1-yl)-5-(1-methyl-1H-pyrazol-5-yl)quinazolin-4(3H)-one], the inhibition at 1 µM in assay [1] and in assay [2] was 80 to 100% in each case.

For `CC1(C)Cc2c(-c3nn(Cc4nc5cccc(C#CCO)c5c(=O)n4-n4cccc4)c4ncnc(N)c34)ccc(O)c2O1` [compound 19, 2-{[4-amino-3-(7-hydroxy-2,2-dimethyl-2,3-dihydro-1-benzofuran-4-yl)-1H-pyrazolo[3,4-d]pyrimidin-1-yl]methyl}-5-(3-hydroxyprop-1-yn-1-yl)-3-(1H-pyrrol-1-yl)quinazolin-4(3H)-one], the inhibition at 1 µM in assay [1] and in assay [2] was 80 to 100% in each case.

In the case of `Cn1cccc1-c1cccc2nc(Cn3nc(-c4ccc(O)c5c4CC(C)(C)O5)c4c(N)ncnc43)n(C3(c4ccsc4)CC3)c(=O)c12` [compound 75, 2-{[4-amino-3-(7-hydroxy-2,2-dimethyl-2,3-dihydro-1-benzofuran-4-yl)-1H-pyrazolo[3,4-d]pyrimidin-1-yl]methyl}-5-(1-methyl-1H-pyrrol-2-yl)-3-[1-(thiophen-3-yl)cyclopropyl]quinazolin-4(3H)-one], the inhibition at 1 µM in assay [1] and in assay [2] was 80 to 100% in each case.

For `CC1(C)Cc2c(-c3nn(Cc4nc5cccc(C#CCNC(=O)C6CC6)c5c(=O)n4-n4cccc4)c4ncnc(N)c34)ccc(O)c2O1` [compound 29, N-{3-[2-{[4-amino-3-(7-hydroxy-2,2-dimethyl-2,3-dihydro-1-benzofuran-4-yl)-1H-pyrazolo[3,4-d]pyrimidin-1-yl]methyl}-4-oxo-3-(1H-pyrrol-1-yl)-3,4-dihydroquinazolin-5-yl]prop-2-yn-1-yl}cyclopropanecarboxamide], the inhibition at 1 µM in assay [1] and in assay [2] was 80 to 100% each time.

On to `CC1(C)Cc2c(-c3nn(Cc4nc5cccc(Cl)c5c(=O)n4-n4cc5ccccc5n4)c4ncnc(N)c34)ccc(O)c2O1` [Compound No. 4, 2-{[4-amino-3-(7-hydroxy-2,2-dimethyl-2,3-dihydro-1-benzofuran-4-yl)-1H-pyrazolo[3,4-d]pyrimidin-1-yl]methyl}-5-chloro-3-(2H-indazol-2-yl)quinazolin-4(3H)-one], for which the figures for the inhibition at 1 µM in assay [1] and in assay [2] were 40 to 60% and 80 to 100%, respectively.

Turning to `Cc1ccc(C)n1-n1c(Cn2nc(-c3ccc(O)c4c3CC(C)(C)O4)c3c(N)ncnc32)nc2cccc(-c3cccn3C)c2c1=O` [compound 77, 2-{[4-amino-3-(7-hydroxy-2,2-dimethyl-2,3-dihydro-1-benzofuran-4-yl)-1H-pyrazolo[3,4-d]pyrimidin-1-yl]methyl}-3-(2,5-dimethyl-1H-pyrrol-1-yl)-5-(1-methyl-1H-pyrrol-2-yl)quinazolin-4(3H)-one], the inhibition at 1 µM in assay [1] and in assay [2] was 80 to 100% in each case.

Turning to `Cn1cc(-c2cccc3nc(Cn4nc(-c5ccc(O)c6c5CC(C)(C)O6)c5c(N)ncnc54)n(C4(c5ccsc5)CC4)c(=O)c23)cn1` [compound 69, 2-{[4-amino-3-(7-hydroxy-2,2-dimethyl-2,3-dihydro-1-benzofuran-4-yl)-1H-pyrazolo[3,4-d]pyrimidin-1-yl]methyl}-5-(1-methyl-1H-pyrazol-4-yl)-3-[1-(thiophen-3-yl)cyclopropyl]quinazolin-4(3H)-one], the values for the inhibition at 1 µM in assay [1] and in assay [2] were 60 to 80% and 80 to 100%, respectively.

Turning to `CC1(C)Cc2c(-c3nn(Cc4nc5cccc(-c6ccsc6)c5c(=O)n4-n4cccc4)c4ncnc(N)c34)ccc(O)c2O1` [compound 14, 2-{[4-amino-3-(7-hydroxy-2,2-dimethyl-2,3-dihydro-1-benzofuran-4-yl)-1H-pyrazolo[3,4-d]pyrimidin-1-yl]methyl}-3-(1H-pyrrol-1-yl)-5-(thiophen-3-yl)quinazolin-4(3H)-one], the inhibition at 1 µM in assay [1] and in assay [2] was 80 to 100% throughout.

With `Cc1ccccc1C1(n2c(Cn3nc(-c4ccc(O)c5c4CC(C)(C)O5)c4c(N)ncnc43)nc3cccc(C)c3c2=O)CC1` [compound 56, 2-{[4-amino-3-(7-hydroxy-2,2-dimethyl-2,3-dihydro-1-benzofuran-4-yl)-1H-pyrazolo[3,4-d]pyrimidin-1-yl]methyl}-5-methyl-3-[1-(2-methylphenyl)cyclopropyl]quinazolin-4(3H)-one], the figures for the inhibition at 1 µM in assay [1] and in assay [2] were 60 to 80% and 80 to 100%, respectively.

`Cc1ccc(C)n1-n1c(Cn2nc(-c3ccc(O)c4c3CC(C)(C)O4)c3c(N)ncnc32)nc2cccc(C#CCN3CCNC(=O)C3)c2c1=O` [compound 68, 2-{[4-amino-3-(7-hydroxy-2,2-dimethyl-2,3-dihydro-1-benzofuran-4-yl)-1H-pyrazolo[3,4-d]pyrimidin-1-yl]methyl}-3-(2,5-dimethyl-1H-pyrrol-1-yl)-5-[3-(3-oxopiperazin-1-yl)prop-1-yn-1-yl]quinazolin-4(3H)-one]: the inhibition at 1 µM in assay [1] and in assay [2] was 80 to 100% each time.

Turning to `CC1(C)Cc2c(-c3nn(Cc4nc5cccc(Br)c5c(=O)n4C4(c5ccccc5)CC4)c4ncnc(N)c34)ccc(O)c2O1` [compound 13, 2-{[4-amino-3-(7-hydroxy-2,2-dimethyl-2,3-dihydro-1-benzofuran-4-yl)-1H-pyrazolo[3,4-d]pyrimidin-1-yl]methyl}-5-bromo-3-(1-phenylcyclopropyl)quinazolin-4(3H)-one], the inhibition at 1 µM in assay [1] and in assay [2] was 80 to 100% throughout.

`CC1(C)Cc2c(-c3nn(Cc4nc5cccc(-c6cccnc6)c5c(=O)n4-n4cccc4)c4ncnc(N)c34)ccc(O)c2O1` [compound 10, 2-{[4-amino-3-(7-hydroxy-2,2-dimethyl-2,3-dihydro-1-benzofuran-4-yl)-1H-pyrazolo[3,4-d]pyrimidin-1-yl]methyl}-5-(pyridin-3-yl)-3-(1H-pyrrol-1-yl)quinazolin-4(3H)-one]: the inhibition at 1 µM in assay [1] lay within 60 to 80%; in assay [2] it was 80 to 100%.

Regarding `CCn1cc(-c2cccc3nc(Cn4nc(-c5ccc(O)c6c5CC(C)(C)O6)c5c(N)ncnc54)n(-n4cccc4)c(=O)c23)cn1` [compound 45, 2-{[4-amino-3-(7-hydroxy-2,2-dimethyl-2,3-dihydro-1-benzofuran-4-yl)-1H-pyrazolo[3,4-d]pyrimidin-1-yl]methyl}-5-(1-ethyl-1H-pyrazol-4-yl)-3-(1H-pyrrol-1-yl)quinazolin-4(3H)-one], the inhibition at 1 µM in assay [1] lay within 60 to 80%; in assay [2], 80 to 100%.

For the compound `COc1ccc(-c2nn(Cc3nc4cccc(C)c4c(=O)n3-n3c(C)ccc3C)c3ncnc(N)c23)c2c1OC(C)(C)C2` [compound 78, 2-{[4-amino-3-(7-methoxy-2,2-dimethyl-2,3-dihydro-1-benzofuran-4-yl)-1H-pyrazolo[3,4-d]pyrimidin-1-yl]methyl}-3-(2,5-dimethyl-1H-pyrrol-1-yl)-5-methylquinazolin-4(3H)-one], the inhibition at 1 µM in assay [1] was 60 to 80%; in assay [2] it was 80 to 100%.

On to `CC1(C)Cc2c(-c3nn(Cc4nc5cccc(Br)c5c(=O)n4-n4cccc4)c4ncnc(N)c34)ccc(O)c2O1` [Compound No. 9, 2-{[4-amino-3-(7-hydroxy-2,2-dimethyl-2,3-dihydro-1-benzofuran-4-yl)-1H-pyrazolo[3,4-d]pyrimidin-1-yl]methyl}-5-bromo-3-(1H-pyrrol-1-yl)quinazolin-4(3H)-one], for which the inhibition at 1 µM in assay [1] and in assay [2] was 80 to 100% each time.

Take `Cc1ccc(-c2cccc3nc(Cn4nc(-c5ccc(O)c6c5CC(C)(C)O6)c5c(N)ncnc54)n(-n4cccc4)c(=O)c23)o1` [compound 15, 2-{[4-amino-3-(7-hydroxy-2,2-dimethyl-2,3-dihydro-1-benzofuran-4-yl)-1H-pyrazolo[3,4-d]pyrimidin-1-yl]methyl}-5-(5-methylfuran-2-yl)-3-(1H-pyrrol-1-yl)quinazolin-4(3H)-one]: the inhibition at 1 µM in assay [1] and in assay [2] was 80 to 100% each time.

Values taken from patent US20190127381A1, “SUBSTITUTED FUSED PYRIMIDINONE COMPOUNDS” (TORRENT PHARMACEUTICALS LIMITED, priority 2016, published 2019).
